From patent US8362000B2, “Azetidinyl diamides as monoacylglycerol lipase inhibitors” (Janssen Pharmaceutica NV, priority 2009, dated 2013) come the findings set out here.

Like-named read-outs stand apart in the source and are kept apart here.

The Kd is the equilibrium constant for the complex coming apart.

Experiment [1] has as its target T1, mutant MGL (Homo sapiens, UniProt Q99685, L169S/L176S).
T1 sequence (Q99685 1-303 L169S/L176S): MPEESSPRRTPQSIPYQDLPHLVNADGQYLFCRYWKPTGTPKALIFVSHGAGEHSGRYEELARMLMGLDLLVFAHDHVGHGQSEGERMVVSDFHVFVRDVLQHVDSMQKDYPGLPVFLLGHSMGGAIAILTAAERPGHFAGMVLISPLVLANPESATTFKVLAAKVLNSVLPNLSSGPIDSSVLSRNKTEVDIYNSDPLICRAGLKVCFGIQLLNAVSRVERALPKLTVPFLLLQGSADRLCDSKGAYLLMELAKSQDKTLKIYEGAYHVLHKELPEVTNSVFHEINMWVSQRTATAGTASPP
The experiment in a line: MGL ThermoFluor assay - mutant. To be noted: read-out: MGL mutant ThermoFluor Kd. It counts as binding. (Differential scanning fluorimetry follows unfolding on heating by fluorescence.)

Experiment [2] has as its target T2, MGL (Rattus norvegicus, UniProt Q8R431).
T2 construct: one g rat brain was homogenized using a Polytron homogenizer; from tissue; host or cells: rat brain homogenate
T2 sequence (Q8R431 1-303): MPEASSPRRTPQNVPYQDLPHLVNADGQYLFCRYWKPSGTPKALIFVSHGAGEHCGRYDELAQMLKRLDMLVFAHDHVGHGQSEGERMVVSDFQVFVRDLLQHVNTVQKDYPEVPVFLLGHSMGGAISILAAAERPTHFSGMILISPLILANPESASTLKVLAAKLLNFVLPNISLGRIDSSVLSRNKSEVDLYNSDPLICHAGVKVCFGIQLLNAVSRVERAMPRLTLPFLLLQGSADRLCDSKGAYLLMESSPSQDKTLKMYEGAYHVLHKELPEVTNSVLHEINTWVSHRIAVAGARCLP
The experiment in a line: 2-AG accumulation assay in rat brain homogenate. It counts as biochemical. Conditions: rat brain homogenate, 2-AG accumulation as percent of vehicle; for 2-AG accumulation, % of vehicle control at 10 µM: compound 10 μM, read-out: Rat Brain 2AG % VehCntrl (%) @ 10 μM; for 2-AG accumulation, % of vehicle control at 1 µM: compound 1 μM, read-out: Rat Brain 2AG % VehCntrl (%) @ 1 μM.

The mark [3] stands for this setting: ThermoFluor thermal stability binding assay.
Where [4] appears, read: ThermoFluor concentration-response.

`O=C(c1ccc(OCc2cccc(Cl)c2)c(Cl)c1)N1CC(N2CCN(C(=O)c3nccs3)CC2)C1` [Cpd 401, 1-[1-({3-Chloro-4-[(3-chlorobenzyl)oxy]phenyl}carbon-yl)azetidin-3-yl]-4-(1,3-thiazol-2-ylcarbonyl)piperazine]: the equilibrium dissociation constant (Kd) in experiment [1] (setting [3]) turned out to be 1.67 nM. The 2-AG accumulation, % of vehicle control at 10 µM in experiment [2] was 762%.

With `O=C(c1ccc(OCc2cccc(Cl)c2)cc1)N1CC(N2CCN(C(=O)c3cscn3)CC2)C1` [Cpd 960], the Kd in experiment [1] (setting [3]) was found to be 36 nM. For the same compound, the 2-AG accumulation, % of vehicle control at 1 µM in experiment [2] was determined as 896%.

Regarding `O=C(c1ccc(-c2ccccc2)cc1)N1CC(N2CCN(C(=O)c3ccc(Br)o3)CC2)C1` [Cpd 12, 1-[1-(Biphenyl-4-ylcarbonyl)azetidin-3-yl]-4-[(5-bromofuran-2-yl)carbonyl]piperazine], the Kd in experiment [1] (setting [4]) stood at 14.3 nM. In experiment [2], the 2-AG accumulation, % of vehicle control at 10 µM is 448%.

Turning to `O=C(c1ccc2c(c1)CCCN2C(=O)C1CCCCC1)N1CC(N2CCN(C(=O)c3nccs3)CC2)C1` [Cpd 360], the Kd in experiment [1] (setting [3]) was 68 nM. For the same compound, the 2-AG accumulation, % of vehicle control at 1 µM in experiment [2] stood at 819%.

On to `O=C(c1ccccc1)N1CCN(C2CN(C(=O)c3ccc(-c4cccc(Cl)c4)cc3)C2)CC1` [Cpd 77, 1-{1-[(3′-Chlorobiphenyl-4-yl)carbonyl]azetidin-3-yl}-4-(phenylcarbonyl)piperazine], for which, in experiment [1] (setting [4]), the Kd came out at 9.09 nM. In experiment [2], the 2-AG accumulation, % of vehicle control at 10 µM was determined as 231%.

For the compound `O=C(c1ccccc1)N1CCN(C2CN(C(=O)c3sc4cc(-c5ccccc5)ccc4c3Cl)C2)CC1` [Cpd 344], the Kd in experiment [1] (setting [3]) amounted to 10 nM. For the same compound, the 2-AG accumulation, % of vehicle control at 1 µM in experiment [2] stood at 238%.

For `Cc1cc(C(=O)N2CC(N3CCN(C(=O)c4cscn4)CC3)C2)ccc1-c1ccccc1` [Cpd 1406], in experiment [1] (setting [4]), the Kd stood at 29 nM. For the same compound, the 2-AG accumulation, % of vehicle control at 1 µM in experiment [2] was 169%.

For `O=C(c1nccs1)N1CCN(C2CN(C(=O)[C@@H]3C[C@H]3c3ccccc3Cl)C2)CC1` (racemic) [Cpd 642], in experiment [1] (setting [4]), the Kd is 499 nM. Also, the 2-AG accumulation, % of vehicle control at 1 µM in experiment [2] turned out to be 170%.

Turning to `O=C(c1ccc(-c2cc(Cl)cc(Cl)c2)cc1)N1CC(N2CCN(C(=O)c3nccs3)CC2)C1` [Cpd 164, 1-{1-[(3′,5′-Dichlorobiphenyl-4-yl)carbonyl]azetidin-3-yl}-4-(1,3-thiazol-2-ylcarbonyl)piperazine], the Kd in experiment [1] (setting [4]) amounted to 1.11 nM. The 2-AG accumulation, % of vehicle control at 10 µM in experiment [2] was 969%.

`O=C(c1nccs1)N1CCN(C2CN(C(=O)c3sc4cc(F)ccc4c3Cl)C2)CC1` [Cpd 930]: the Kd in experiment [1] (setting [3]) is 5 nM. Also, the 2-AG accumulation, % of vehicle control at 1 µM in experiment [2] turned out to be 807%.

For `O=C(c1ccc2nc(-c3cccc(F)c3)sc2c1)N1CC(N2CCN(C(=O)c3nccs3)CC2)C1` [Cpd 1131], the Kd in experiment [1] (setting [3]) was determined as 16 nM. For the same compound, the 2-AG accumulation, % of vehicle control at 1 µM in experiment [2] is 563%.

Take `O=C(c1ccc(-c2ccc(Cl)cc2)cc1)N1CC(N2CCN(C(=O)c3nccs3)CC2)C1` [Cpd 163, 1-{1-[(4′-Chlorobiphenyl-4-yl)carbonyl]azetidin-3-yl}-4-(1,3-thiazol-2-ylcarbonyl)piperazine]: in experiment [1] (setting [4]), the Kd turned out to be 3.45 nM. Moreover, the 2-AG accumulation, % of vehicle control at 10 µM in experiment [2] stood at 923%.

Take `Cc1nc(-c2ccc(Cl)cc2)sc1C(=O)N1CC(N2CCN(C(=O)c3cscn3)CC2)C1` [Cpd 1384]: the Kd in experiment [1] (setting [3]) is 61 nM. In addition, the 2-AG accumulation, % of vehicle control at 1 µM in experiment [2] came to 313%.

Regarding `Cc1cc(C(=O)N2CC(N3CCN(C(=O)c4ccccc4)CC3)C2)ccc1-c1ccc(F)c(Cl)c1` [Cpd 259, 1-{1-[(3′-Chloro-4′-fluoro-2-methylbiphenyl-4-yl)carbonyl]azetidin-3-yl}-4-(phenylcarbonyl)piperazine], the Kd in experiment [1] (setting [3]) was 7.7 nM. Moreover, in experiment [2], the 2-AG accumulation, % of vehicle control at 1 µM was determined as 156%.

For `O=C(c1cc2cccc(C(F)(F)F)c2s1)N1CC(N2CCN(C(=O)c3nccs3)CC2)C1` [Cpd 328], the Kd in experiment [1] (setting [3]) stood at 81.6 nM. Besides, in experiment [2], the 2-AG accumulation, % of vehicle control at 1 µM was 378%.

For `O=C(c1ccc2c(c1)CCCN2S(=O)(=O)c1ccccc1)N1CC(N2CCN(C(=O)c3nccs3)CC2)C1` [Cpd 366, 1-(Phenylsulfonyl)-6-({3-[4-(1,3-thiazol-2-ylcarbonyl)piperazin-1-yl]azetidin-1-yl}carbonyl)-1,2,3,4-tetrahydroquinoline], in experiment [1] (setting [3]), the Kd came out at 35.3 nM. In experiment [2], the 2-AG accumulation, % of vehicle control at 1 µM worked out at 432%.

`COc1cc(C(=O)N2CC(N3CCN(C(=O)c4ccccc4)CC3)C2)ccc1-c1ccc(Cl)c(C(F)(F)F)c1` [Cpd 264, 1-(1-{[4′-Chloro-2-methoxy-3′-(trifluoromethyl)biphenyl-4-yl]carbonyl}azetidin-3-yl)-4-(phenylcarbonyl)piperazine]: the Kd in experiment [1] (setting [3]) was 10 nM. In addition, in experiment [2], the 2-AG accumulation, % of vehicle control at 1 µM was determined as 172%.

Turning to `O=C(c1ccc2c(c1)CCCN2S(=O)(=O)c1cccc(F)c1)N1CC(N2CCN(C(=O)c3nccs3)CC2)C1` [Cpd 368, 1-[(3-Fluorophenyl)sulfonyl]-6-({3-[4-(1,3-thiazol-2-ylcarbonyl)piperazin-1-yl]azetidin-1-yl}carbonyl)-1,2,3,4-tetrahydroquinoline], the Kd in experiment [1] (setting [3]) was determined as 55.1 nM. The 2-AG accumulation, % of vehicle control at 1 µM in experiment [2] was 434%.

Consider `CS(=O)(=O)N1CCCc2cc(C(=O)N3CC(N4CCN(C(=O)c5nccs5)CC4)C3)ccc21` [Cpd 361], for which the Kd in experiment [1] (setting [3]) was 144 nM. In experiment [2], the 2-AG accumulation, % of vehicle control at 1 µM was 186%.

Turning to `Cc1cc(C(=O)N2CC(N3CCN(C(=O)c4ccccc4)CC3)C2)ccc1-c1ccc(Cl)c(C(F)(F)F)c1` [Cpd 260, 1-(1-{[4′-Chloro-2-methyl-3′-(trifluoromethyl)biphenyl-4-yl]carbonyl}azetidin-3-yl)-4-(phenylcarbonyl)piperazine], in experiment [1] (setting [3]), the Kd came to 20 nM. The 2-AG accumulation, % of vehicle control at 1 µM in experiment [2] was 140%.

On to `O=C(c1ccc(Cc2ccccc2)cc1)N1CCN(C2CN(C(=O)c3ccccc3)C2)CC1` [Cpd 61, 1-[(4-Benzylphenyl)carbonyl]-4-[1-(phenylcarbonyl)azetidin-3-yl]piperazine], for which the Kd in experiment [1] (setting [4]) amounted to 29 nM. Moreover, the 2-AG accumulation, % of vehicle control at 10 µM in experiment [2] amounted to 604%.

Take `O=C(c1ccc(COc2cccc(Cl)c2)cc1)N1CC(N2CCN(C(=O)c3nccs3)CC2)C1` [Cpd 453, 1-[1-({4-[(3-Chlorophenoxy)methyl]phenyl}carbonyl)azetidin-3-yl]-4-(1,3-thiazol-2-ylcarbonyl)piperazine]: the Kd in experiment [1] (setting [4]) turned out to be 12 nM. Also, the 2-AG accumulation, % of vehicle control at 1 µM in experiment [2] turned out to be 917%.

In the case of `Cc1cc(C(=O)N2CC(N3CCN(C(=O)c4ccccc4)CC3)C2)ccc1-c1cccc(C(F)(F)F)c1` [Cpd 243, 1-(1-{[2-Methyl-3′-(trifluoromethyl)biphenyl-4-yl]carbonyl}azetidin-3-yl)-4-(phenylcarbonyl)piperazine], the Kd in experiment [1] (setting [3]) was 16.7 nM. In experiment [2], the 2-AG accumulation, % of vehicle control at 1 µM came to 120%.

For `O=C(c1ccc2c(ccn2-c2ncc(F)cn2)c1)N1CC(N2CCN(C(=O)c3nccs3)CC2)C1` [Cpd 1147, 1-(5-Fluoropyrimidin-2-yl)-5-({3-[4-(1,3-thiazol-2-ylcarbonyl)piperazin-1-yl]azetidin-1-yl}carbonyl)-1H-indole], in experiment [1] (setting [4]), the Kd was 3 nM. Moreover, the 2-AG accumulation, % of vehicle control at 1 µM in experiment [2] worked out at 892%.

In the case of `O=C(c1ccccc1)N1CCN(C2CN(C(=O)c3ccc(-c4ccc(F)c(Cl)c4)cc3Cl)C2)CC1` [Cpd 267, 1-{1-[(3,3′-Dichloro-4′-fluorobiphenyl-4-yl)carbonyl]azetidin-3-yl}-4-(phenylcarbonyl)piperazine], the Kd in experiment [1] (setting [3]) turned out to be 12.5 nM. Also, the 2-AG accumulation, % of vehicle control at 1 µM in experiment [2] stood at 130%.
